This experiment has as its target T1, human orexin type 2 receptor (Homo sapiens, UniProt O43614).
T1 construct: expressed in transfected cells
T1 sequence (O43614 1-444): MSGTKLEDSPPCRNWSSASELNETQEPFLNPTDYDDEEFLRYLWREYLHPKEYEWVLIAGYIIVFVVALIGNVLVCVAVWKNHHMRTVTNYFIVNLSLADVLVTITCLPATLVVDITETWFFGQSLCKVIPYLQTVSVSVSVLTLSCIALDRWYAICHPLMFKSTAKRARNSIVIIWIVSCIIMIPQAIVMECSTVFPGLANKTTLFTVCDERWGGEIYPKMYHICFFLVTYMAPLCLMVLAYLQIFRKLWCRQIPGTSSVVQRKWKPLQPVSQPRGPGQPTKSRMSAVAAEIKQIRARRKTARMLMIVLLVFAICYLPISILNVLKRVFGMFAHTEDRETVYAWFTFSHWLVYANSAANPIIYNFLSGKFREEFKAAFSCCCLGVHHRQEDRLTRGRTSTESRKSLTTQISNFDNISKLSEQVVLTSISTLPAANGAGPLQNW
Kind of experiment: Measurement of orexin type 2 receptor agonist activity (calcium fluorescence, Fluo-4 AM, FDSS). It counts as cell-based. The note with it: test compound 3 μM; CHO cells expressing human OX2 receptor; DMSO = 0%, orexin A (human) = 100%. The method in brief: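 CHO-K1 cells stably expressing human OX2R were loaded with Fluo-4 AM (30 min 37 °C, 30 min RT) in HEPES-buffered HBSS with 0.1% BSA and probenecid. Calcium fluorescence was followed on FDSS for 2 min after compound addition; activity normalised to DMSO (0%) and 10 nM orexin A (100%).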
As to `CN(C)S(=O)(=O)NC1CCCCN(C(=O)C2CC2c2ccccc2-c2c(F)cccc2F)C1` (racemic) [Example 162, a mixture of rac-N′-{(3R)-1-[(1R,2R)-2-(2′,6′-difluoro[1,1′-biphenyl]-2-yl)cyclopropane-1-carbonyl]azepan-3-yl}-N,N-dimethylsulfuric diamide and rac-N′-{(3S)-1-[(1R,2R)-2-(2′,6′-difluoro[1,1′-biphenyl]-2-yl)cyclopropane-1-carbonyl]azepan-3-yl}-N,N-dimethylsulfuric diamide], the “OX2R agonist activity (3 μM, %)” value was 106%. Regarding `CN(C)S(=O)(=O)NC1CCCN(C(=O)C2CC2c2ccccc2-c2c(F)cccc2F)C1` (racemic) [Example 164, a mixture of rac-N′-{(3R)-1-[(1R,2R)-2-(2′,6′-difluoro[1,1′-biphenyl]-2-yl)cyclopropane-1-carbonyl]piperidin-3-yl}-N,N-dimethylsulfuric diamide and rac-N′-{(3S)-1-[(1R,2R)-2-(2′,6′-difluoro[1,1′-biphenyl]-2-yl)cyclopropane-1-carbonyl]piperidin-3-yl}-N,N-dimethylsulfuric diamide], the “OX2R agonist activity (3 μM, %)” value is 104%. `Cc1ccc(C2CC2C(=O)N2CCCC(NS(C)(=O)=O)C2)c(-c2c(F)cccc2F)c1` (racemic) [Example 166, a mixture of rac-N-{(3R)-1-[(1R,2R)-2-(2′,6′-difluoro-5-methyl[1,1′-biphenyl]-2-yl)cyclopropane-1-carbonyl]piperidin-3-yl}methanesulfonamide and rac-N-{(3S)-1-[(1R,2R)-2-(2′,6′-difluoro-5-methyl[1,1′-biphenyl]-2-yl)cyclopropane-1-carbonyl]piperidin-3-yl}methanesulfonamide]: the “OX2R agonist activity (3 μM, %)” value was 110%. To `Cc1ccc(C2CC2C(=O)N2CCCC(NS(C)(=O)=O)CC2)c(-c2c(F)cccc2F)c1` (racemic) [Example 167, a mixture of rac-N-{(4R)-1-[(1R,2R)-2-(2′,6′-difluoro-5-methyl[1,1′-biphenyl]-2-yl)cyclopropane-1-carbonyl]azepan-4-yl}methanesulfonamide and rac-N-{(4S)-1-[(1R,2R)-2-(2′,6′-difluoro-5-methyl[1,1′-biphenyl]-2-yl)cyclopropane-1-carbonyl]azepan-4-yl}methanesulfonamide] belongs 96%. To `CC1CCN(C(=O)C2CC2c2ccccc2-c2c(F)cccc2F)CC1NS(C)(=O)=O` (racemic) [Example 185, a mixture of rac-N-{(3R,4R)-1-[(1R,2R)-2-(2′,6′-difluoro[1,1′-biphenyl]-2-yl)cyclopropane-1-carbonyl]-4-methylpiperidin-3-yl}methanesulfonamide and rac-N-{(3S,4S)-1-[(1R,2R)-2-(2′,6′-difluoro[1,1′-biphenyl]-2-yl)cyclopropane-1-carbonyl]-4-methylpiperidin-3-yl}methanesulfonamide] belongs 57%; to `CC1CCN(C(=O)C2CC2c2ccccc2-c2c(F)cccc2F)CCC1NS(C)(=O)=O` (racemic) [Example 186], 101%. Take `CS(=O)(=O)NC1CCN(C(=O)C2CC2c2c(F)cccc2-c2ccccc2F)C1` (racemic) [Example 188, a mixture of rac-N-{(3R)-1-[(1R,2R)-2-(2′,3-difluoro[1,1′-biphenyl]-2-yl)cyclopropane-1-carbonyl]pyrrolidin-3-yl}methanesulfonamide and rac-N-{(3S)-1-[(1R,2R)-2-(2′,3-difluoro[1,1′-biphenyl]-2-yl)cyclopropane-1-carbonyl]pyrrolidin-3-yl}methanesulfonamide]: the “OX2R agonist activity (3 μM, %)” value is given as 86%.

Regarding `CS(=O)(=O)NC1CCCN(C(=O)C2CC2c2ncccc2-c2c(F)cccc2F)C1` (racemic) [Example 189, a mixture of rac-N-[(3R)-1-{(1R,2R)-2-[3-(2,6-difluorophenyl)pyridin-2-yl]cyclopropane-1-carbonyl}piperidin-3-yl]methanesulfonamide and rac-N-[(3S)-1-{(1R,2R)-2-[3-(2,6-difluorophenyl)pyridin-2-yl]cyclopropane-1-carbonyl}piperidin-3-yl]methanesulfonamide], the “OX2R agonist activity (3 μM, %)” value is on record as 67%. As for `O=C(C1CC1c1ccccc1-c1c(F)cccc1F)N1CC[C@H](NS(=O)(=O)CF)C1` (mixture of isomers) [Example 202, a mixture of rac-N-{(3S)-1-[(1R,2R)-2-(2′,6′-difluoro[1,1′-biphenyl]-2-yl)cyclopropane-1-carbonyl]pyrrolidin-3-yl}-1-fluoromethanesulfonamide and N-{(3S)-1-[(1S,2S)-2-(2′,6′-difluoro[1,1′-biphenyl]-2-yl)cyclopropane-1-carbonyl]pyrrolidin-3-yl}-1-fluoromethanesulfonamide], the figure is 106%; as for `CCS(=O)(=O)NCC1CCN1C(=O)C1CC1c1ccccc1-c1c(F)cccc1F` (racemic) [Example 203, a mixture of rac-N-({(2R)-1-[(1R,2R)-2-(2′,6′-difluoro[1,1′-biphenyl]-2-yl)cyclopropane-1-carbonyl]azetidin-2-yl}methyl)ethanesulfonamide and rac-N-({(2S)-1-[(1R,2R)-2-(2′,6′-difluoro[1,1′-biphenyl]-2-yl)cyclopropane-1-carbonyl]azetidin-2-yl}methyl)ethanesulfonamide], 94%; as for `CN(C)S(=O)(=O)NCC1CCN1C(=O)C1CC1c1ccccc1-c1c(F)cccc1F` (racemic) [Example 204, a mixture of rac-N′-({(2R)-1-[(1R,2R)-2-(2′,6′-difluoro[1,1′-biphenyl]-2-yl)cyclopropane-1-carbonyl]azetidin-2-yl}methyl)-N,N-dimethylsulfuric diamide and rac-N′-({(2S)-1-[(1R,2R)-2-(2′,6′-difluoro[1,1′-biphenyl]-2-yl)cyclopropane-1-carbonyl]azetidin-2-yl}methyl)-N,N-dimethysulfuric diamide], 96%. For `O=C(C1CC1c1ccccc1-c1c(F)cccc1F)N1CCC1CNS(=O)(=O)C1CC1` (racemic) [Example 205, a mixture of rac-N-({(2R)-1-[(1R,2R)-2-(2′,6′-difluoro[1,1′-biphenyl]-2-yl)cyclopropane-1-carbonyl]azetidin-2-yl}methyl)cyclopropanesulfonamide and rac-N-({(2S)-1-[(1R,2R)-2-(2′,6′-difluoro[1,1′-biphenyl]-2-yl)cyclopropane-1-carbonyl]azetidin-2-yl}methyl)cyclopropanesulfonamide], the “OX2R agonist activity (3 μM, %)” value is on record as 78%. As for `CS(=O)(=O)NC1CCCN(C(=O)C2CC2c2cnccc2-c2c(F)cccc2F)CC1` (racemic) [Example 206, a mixture of rac-N-[(4R)-1-{(1R,2R)-2-[4-(2,6-difluorophenyl)pyridin-3-yl]cyclopropane-1-carbonyl}azepan-4-yl]methanesulfonamide and rac-N-[(4S)-1-{(1R,2R)-2-[4-(2,6-difluorophenyl)pyridin-3-yl]cyclopropane-1-carbonyl}azepan-4-yl]methanesulfonamide], the figure is 87%.

Turning to `CS(=O)(=O)NC1CCN(C(=O)C2CC2c2ccc(F)cc2-c2ccccc2F)C1` (racemic) [Example 208, a mixture of rac-N-{(3R)-1-[(1R,2R)-2-(2′,5-difluoro[1,1′-biphenyl]-2-yl)cyclopropane-1-carbonyl]pyrrolidin-3-yl}methanesulfonamide and rac-N-{(3S)-1-[(1R,2R)-2-(2′,5-difluoro[1,1′-biphenyl]-2-yl)cyclopropane-1-carbonyl]pyrrolidin-3-yl}methanesulfonamide], the “OX2R agonist activity (3 μM, %)” value was 78%. For `Cc1ccc(C2CC2C(=O)N2CCC(NS(C)(=O)=O)C2)c(-c2ccccc2F)c1` (racemic) [Example 209, a mixture of rac-N-{(3R)-1-[(1R,2R)-2-(2′-fluoro-5-methyl[1,1′-biphenyl]-2-yl)cyclopropane-1-carbonyl]pyrrolidin-3-yl}methanesulfonamide and rac-N-{(3S)-1-[(1R,2R)-2-(2′-fluoro-5-methyl[1,1′-biphenyl]-2-yl)cyclopropane-1-carbonyl]pyrrolidin-3-yl}methanesulfonamide], the “OX2R agonist activity (3 μM, %)” value is reported as 95%.

With `CS(=O)(=O)NC1CCN(C(=O)C2CC2c2ccccc2-c2c(F)cccc2F)CCC1(F)F` (racemic) [Example 212, a mixture of rac-N-{(4R)-1-[(1R,2R)-2-(2′,6′-difluoro[1,1′-biphenyl]-2-yl)cyclopropane-1-carbonyl]-5,5-difluoroazepan-4-yl}methanesulfonamide and rac-N-{(4S)-1-[(1R,2R)-2-(2′,6′-difluoro[1,1′-biphenyl]-2-yl)cyclopropane-1-carbonyl]-5,5-difluoroazepan-4-yl}methanesulfonamide], the “OX2R agonist activity (3 μM, %)” value was 91%. To `CC1CN(C(=O)C2CC2c2ccccc2-c2c(F)cccc2F)CCCC1NS(C)(=O)=O` (racemic) [Example 217] belongs 83%.

Values taken from US20250250230A1, “HETEROCYCLIC COMPOUND” (TAKEDA PHARMACEUTICAL COMPANY LIMITED, priority 2022, published 2025).
